Laboratory results taken from ChEMBL document CHEMBL3091293, “The synthesis and biodistribution of [(11)C]metformin as a PET probe to study hepatobiliary transport mediated by the multi-drug and toxin extrusion transporter 1 (MATE1) in vivo” (Bioorg Med Chem, 2013).

What was measured:
Format in all cases: ADME, organism-based
[1] = Drug uptake in urinary bladder of ddY mouse at 127 +/- 35 MBq/kg, iv measured up to 4.5 mins by microPET image analysis in presence of MATE1 inhibitor pyrimethamine; conditions: in vivo, 0.075 h
Mus musculus [2] = assay: Biodistribution in remaining body parts of ddY mouse at 14.6 +/- 2.1 MBq, iv measured per gram of tissue at 27.5 mins by PET image analysis; conditions: in vivo
Kidney [3] = assay: Biodistribution in kidney of ddY mouse at 14.6 +/- 2.1 MBq, iv measured per gram of tissue at 5 mins by PET image analysis; conditions: in vivo
Kidney [4] = assay: Biodistribution in kidney of ddY mouse at 5.6 +/- 2.1 MBq, iv measured per gram of tissue at 60 mins by gamma-ray counting analysis; conditions: in vivo, 1 h
Liver [5] = assay: Biodistribution in liver of ddY mouse at 5.6 +/- 2.1 MBq, iv measured per gram of tissue at 90 mins by gamma-ray counting analysis; conditions: in vivo, 1.5 h
Mus musculus [6] = assay: Biodistribution in urinary bladder/urine of ddY mouse at 5.6 +/- 2.1 MBq, iv measured per gram of tissue at 60 mins by gamma-ray counting analysis; conditions: in vivo, 1 h
Mus musculus [7] = assay: Biodistribution in remaining body parts of ddY mouse at 5.6 +/- 2.1 MBq, iv measured per gram of tissue at 30 mins by gamma-ray counting analysis; conditions: in vivo, 0.5 h
Mus musculus [8] = assay: Biodistribution in heart wall of ddY mouse at 5.6 +/- 2.1 MBq, iv measured per gram of tissue at 35 mins by gamma-ray counting analysis; conditions: in vivo
Spleen = assay: Biodistribution in spleen of ddY mouse at 5.6 +/- 2.1 MBq, iv measured per gram of tissue at 45 mins by gamma-ray counting analysis; conditions: in vivo, 0.75 h
Mus musculus [9] = assay: Biodistribution in small intestine wall of ddY mouse at 5.6 +/- 2.1 MBq, iv measured per gram of tissue at 90 mins by gamma-ray counting analysis; conditions: in vivo, 1.5 h
Mus musculus [10] = assay: Biodistribution in stomach wall of ddY mouse at 5.6 +/- 2.1 MBq, iv measured per gram of tissue at 45 mins by gamma-ray counting analysis; conditions: in vivo, 0.75 h
Mus musculus [11] = assay: Biodistribution in stomach wall of ddY mouse at 5.6 +/- 2.1 MBq, iv measured per gram of tissue at 35 mins by gamma-ray counting analysis; conditions: in vivo
Mus musculus [12] = assay: Biodistribution in urinary bladder/urine of ddY mouse at 5.6 +/- 2.1 MBq, iv measured per gram of tissue at 90 mins by gamma-ray counting analysis; conditions: in vivo, 1.5 h
Mus musculus [13] = assay: Biodistribution in remaining body parts of ddY mouse at 5.6 +/- 2.1 MBq, iv measured per gram of tissue at 60 mins by gamma-ray counting analysis; conditions: in vivo, 1 h
Liver [14] = assay: Metabolic stability in liver of mouse at 5 +/- 2.3 MBq/kg, iv measured until 30 to 60 mins by HPLC analysis in presence of MATE1 inhibitor pyrimethamine; conditions: in vivo
Mus musculus [15] = assay: Biodistribution in remaining body parts of ddY mouse at 14.6 +/- 2.1 MBq, iv measured per gram of tissue at 5 mins by PET image analysis; conditions: in vivo
Liver [16] = assay: Biodistribution in liver of ddY mouse at 14.6 +/- 2.1 MBq, iv measured per gram of tissue at 14 mins by PET image analysis; conditions: in vivo
Pancreas [17] = assay: Biodistribution in pancreas of ddY mouse at 5.6 +/- 2.1 MBq, iv measured per gram of tissue at 35 mins by gamma-ray counting analysis; conditions: in vivo
Kidney [18] = assay: Biodistribution in kidney of ddY mouse at 5.6 +/- 2.1 MBq, iv measured per gram of tissue at 45 mins by gamma-ray counting analysis; conditions: in vivo, 0.75 h
Thyroid gland [19] = assay: Biodistribution in thyroid of ddY mouse at 5.6 +/- 2.1 MBq, iv measured per gram of tissue at 30 mins by gamma-ray counting analysis; conditions: in vivo, 0.5 h
Liver [20] = assay: Biodistribution in liver of ddY mouse at 5.6 +/- 2.1 MBq, iv measured per gram of tissue at 30 mins by gamma-ray counting analysis; conditions: in vivo, 0.5 h
Lung [21] = assay: Biodistribution in lung of ddY mouse at 5.6 +/- 2.1 MBq, iv measured per gram of tissue at 15 mins by gamma-ray counting analysis; conditions: in vivo, 0.25 h
Liver [22] = assay: Drug uptake in liver of ddY mouse at 127 +/- 35 MBq/kg, iv after 2 mins by microPET image analysis; conditions: in vivo
Mus musculus [23] = assay: Biodistribution in small intestine wall of ddY mouse at 5.6 +/- 2.1 MBq, iv measured per gram of tissue at 15 mins by gamma-ray counting analysis; conditions: in vivo, 0.25 h
Pancreas [24] = assay: Biodistribution in pancreas of ddY mouse at 5.6 +/- 2.1 MBq, iv measured per gram of tissue at 90 mins by gamma-ray counting analysis; conditions: in vivo, 1.5 h
Mus musculus [25] = assay: Biodistribution in small intestine wall of ddY mouse at 5.6 +/- 2.1 MBq, iv measured per gram of tissue at 35 mins by gamma-ray counting analysis; conditions: in vivo
Kidney [26] = assay: Drug uptake in kidney of ddY mouse at 127 +/- 35 MBq/kg, iv measured up to 4.5 mins by microPET image analysis in presence of MATE1 inhibitor pyrimethamine; conditions: in vivo, 0.075 h
[27] = Drug uptake in urinary bladder of ddY mouse at 127 +/- 35 MBq/kg, iv measured up to 4.5 mins by microPET image analysis; conditions: in vivo, 0.075 h
Liver [28] = assay: Biodistribution in liver of ddY mouse at 14.6 +/- 2.1 MBq, iv measured per gram of tissue at 27.5 mins by PET image analysis; conditions: in vivo
Mus musculus [29] = assay: Biodistribution in heart wall of ddY mouse at 5.6 +/- 2.1 MBq, iv measured per gram of tissue at 30 mins by gamma-ray counting analysis; conditions: in vivo, 0.5 h
Mus musculus [30] = assay: Biodistribution in urinary bladder/urine of ddY mouse at 5.6 +/- 2.1 MBq, iv measured per gram of tissue at 30 mins by gamma-ray counting analysis; conditions: in vivo, 0.5 h
Mus musculus [31] = assay: Biodistribution in small intestine wall of ddY mouse at 5.6 +/- 2.1 MBq, iv measured per gram of tissue at 30 mins by gamma-ray counting analysis; conditions: in vivo, 0.5 h
Thyroid gland [32] = assay: Biodistribution in thyroid of ddY mouse at 5.6 +/- 2.1 MBq, iv measured per gram of tissue at 35 mins by gamma-ray counting analysis; conditions: in vivo
Liver [33] = assay: Biodistribution in liver of ddY mouse at 5.6 +/- 2.1 MBq, iv measured per gram of tissue at 60 mins by gamma-ray counting analysis; conditions: in vivo, 1 h
Mus musculus [34] = assay: Biodistribution in heart wall of ddY mouse at 5.6 +/- 2.1 MBq, iv measured per gram of tissue at 15 mins by gamma-ray counting analysis; conditions: in vivo, 0.25 h
Lung [35] = assay: Biodistribution in lung of ddY mouse at 5.6 +/- 2.1 MBq, iv measured per gram of tissue at 35 mins by gamma-ray counting analysis; conditions: in vivo
Mus musculus [36] = assay: Biodistribution in heart wall of ddY mouse at 5.6 +/- 2.1 MBq, iv measured per gram of tissue at 90 mins by gamma-ray counting analysis; conditions: in vivo, 1.5 h

Drug uptake [1]: Active
Drug uptake (Mus musculus [2]): 28.532 %ID
Drug uptake (Kidney [3]): 6.576 %ID
Drug uptake (Kidney [4]): 1.068 %ID
Drug uptake (Liver [5]): 1.288 %ID
Drug uptake (Mus musculus [6]): 69.767 %ID
Drug uptake (Mus musculus [7]): 18.728 %ID
Drug uptake (Mus musculus [8]): 0.049 %ID
Drug uptake (Spleen): 0.123 %ID
Drug uptake (Mus musculus [9]): 1.604 %ID
Drug uptake (Mus musculus [10]): 0.08 %ID
Drug uptake (Mus musculus [11]): 0.091 %ID
Drug uptake (Mus musculus [12]): 59.056 %ID
Drug uptake (Mus musculus [13]): 23.827 %ID
Stability (Liver [14]): Stable
Drug uptake (Mus musculus [15]): 51.908 %ID
Drug uptake (Liver [16]): 1.796 %ID
Drug uptake (Pancreas [17]): 0.196 %ID
Drug uptake (Kidney [18]): 0.165 %ID
Drug uptake (Thyroid gland [19]): 0.009 %ID
Drug uptake (Liver [20]): 2.319 %ID
Drug uptake (Lung [21]): 0.254 %ID
Drug uptake (Liver [22]): Not Active
Drug uptake (Mus musculus [23]): 3.409 %ID
Drug uptake (Pancreas [24]): 0.339 %ID
Drug uptake (Mus musculus [25]): 2.06 %ID
Drug uptake (Kidney [26]): Active
Drug uptake [27]: Active
Drug uptake (Liver [28]): 1.033 %ID
Drug uptake (Mus musculus [29]): 0.044 %ID
Drug uptake (Mus musculus [30]): 73.314 %ID
Drug uptake (Mus musculus [31]): 3.165 %ID
Drug uptake (Thyroid gland [32]): 0.003 %ID
Drug uptake (Liver [33]): 1.631 %ID
Drug uptake (Mus musculus [34]): 0.102 %ID
Drug uptake (Lung [35]): 0.119 %ID
Drug uptake (Mus musculus [36]): 0.041 %ID
Compound: CN([11CH3])C(=N)NC(=N)N
